As usually defined, the TGI is the concentration giving total growth inhibition. Lower therefore signals more potent growth arrest.

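Dose response: 5 concentrations. Exposure: 48 h. Format: 96-well plates. Endpoint: linear interpolation; highest concentration if not reached. TGI marks complete inhibition of growth.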 Where only a bound is given, the exact number is not on record here.

This is an account of results in PubChem BioAssay (NCI).

Some test systems named below: SNB-75 CNS; NCI-H460 lung; EKVX NSCLC; UACC-257 melanoma; HT29 colon; LOX IMVI melanoma; MDA-N; 786-0 renal; UO-31 renal; SK-OV-3 ovarian; HL-60(TB) leukemia; OVCAR-8 ovarian; MOLT-4 leukemia; TK-10 renal; MCF7 breast; OVCAR-3 ovarian; A549 NSCLC; MDA-MB-435.
What all share (assay): DTP human tumour cell line panel, 48 h

In the case of `COc1cc(Oc2nc3c(N)cc(C(F)(F)F)cc3nc2-c2ccccc2)cc(OC)c1OC`, the TGI in the assay on SNB-75 CNS is 26 µM; in the assay on NCI-H460 lung, more than 100 µM; in the assay with EKVX NSCLC it was more than 100 µM; with UACC-257 melanoma, 43.9 µM; with HT29 colon, 5.31 µM; in the assay with LOX IMVI melanoma, more than 100 µM. The TGI in the assay on MDA-N was 3.08 µM; in the assay on 786-0 renal, more than 41.1 µM; with UO-31 renal, more than 100 µM; in the assay with SK-OV-3 ovarian it was more than 66.5 µM; in the assay on HL-60(TB) leukemia, more than 100 µM; in the assay with OVCAR-8 ovarian, more than 46.3 µM. In addition, the TGI was more than 100 µM in the assay with MOLT-4 leukemia; more than 100 µM with TK-10 renal; more than 50.5 µM with MCF7 breast; 13.5 µM with OVCAR-3 ovarian; more than 100 µM in the assay on A549 NSCLC.
In the case of `O=C1CCCCC/C1=C\c1ccc(Cl)cc1`, the total growth inhibition concentration (TGI) with SNB-75 CNS is 81.3 µM; with NCI-H460 lung, more than 100 µM; with EKVX NSCLC, more than 100 µM; in the assay with UACC-257 melanoma it was more than 100 µM; in the assay on HT29 colon, 54.5 µM; in the assay on LOX IMVI melanoma, more than 100 µM. The TGI in the assay with MDA-N is more than 100 µM; with MDA-MB-435, 58.2 µM; in the assay with 786-0 renal it was more than 100 µM; in the assay with UO-31 renal, more than 100 µM; in the assay with SK-OV-3 ovarian, more than 100 µM; in the assay on MOLT-4 leukemia it was 95.1 µM. In addition, the TGI in the assay on TK-10 renal, in the assay with OVCAR-3 ovarian and with A549 NSCLC was more than 100 µM in each case.
For the compound `O=C1[C@@H]2C[C@@H](O)CN2C(=O)c2ccccc2N1CCCO`, the TGI in the assay with SNB-75 CNS, in the assay on NCI-H460 lung, with EKVX NSCLC, with UACC-257 melanoma, with HT29 colon and in the assay on LOX IMVI melanoma was more than 100 µM each time. For the same compound, the TGI in the assay with MDA-N, in the assay on MDA-MB-435, with 786-0 renal, in the assay with UO-31 renal, in the assay with SK-OV-3 ovarian and in the assay on OVCAR-8 ovarian was more than 100 µM each time. The TGI in the assay on MOLT-4 leukemia, in the assay on TK-10 renal, with MCF7 breast, in the assay with OVCAR-3 ovarian and in the assay with A549 NSCLC was more than 100 µM in each case.
As for `C/C(=N\NC(=S)NC(C)(C)C)c1ccccn1`, the TGI is more than 100 µM in the assay with SNB-75 CNS; more than 100 µM in the assay with EKVX NSCLC; more than 100 µM in the assay on UACC-257 melanoma; more than 76.6 µM in the assay on HT29 colon; more than 100 µM with LOX IMVI melanoma; more than 100 µM in the assay with MDA-N. The TGI in the assay on MDA-MB-435 is more than 100 µM; in the assay on 786-0 renal, 98.4 µM; with UO-31 renal, 14.3 µM; with SK-OV-3 ovarian it was 80.1 µM; in the assay with OVCAR-8 ovarian, more than 36.6 µM; with TK-10 renal, more than 100 µM. Further, the figures for the TGI in the assay with MCF7 breast, in the assay with OVCAR-3 ovarian and with A549 NSCLC were more than 100 µM, more than 100 µM and more than 38.4 µM, respectively.
`O=c1c2cn[nH]c2nc2scc(-c3ccc(Cl)cc3)n12`: the TGI in the assay with SNB-75 CNS, in the assay with NCI-H460 lung, with EKVX NSCLC, in the assay with UACC-257 melanoma, in the assay on HT29 colon and in the assay with LOX IMVI melanoma was more than 100 µM each time. Moreover, the total growth inhibition concentration (TGI) with MDA-N, with MDA-MB-435, in the assay on 786-0 renal, in the assay with UO-31 renal, with SK-OV-3 ovarian and in the assay with OVCAR-8 ovarian was more than 100 µM in each case. Besides, the TGI in the assay with MOLT-4 leukemia, in the assay with TK-10 renal, with MCF7 breast, with OVCAR-3 ovarian and in the assay on A549 NSCLC was more than 100 µM throughout.
Turning to `CC(C)/C(Cl)=N\OC(=O)Nc1ccc(F)cc1F`, the TGI in the assay on SNB-75 CNS came to 33.6 µM; with NCI-H460 lung it was 43.1 µM; with EKVX NSCLC, 13.8 µM; in the assay on UACC-257 melanoma, 27.7 µM; in the assay on HT29 colon it was 15.8 µM; in the assay with LOX IMVI melanoma, 3.32 µM. The TGI came to 22.7 µM with MDA-N; 13.3 µM with 786-0 renal; 17.8 µM with UO-31 renal; 30.8 µM with SK-OV-3 ovarian; 0.626 µM in the assay on HL-60(TB) leukemia; 31.6 µM in the assay with OVCAR-8 ovarian. Also, the TGI turned out to be 3.99 µM in the assay with MOLT-4 leukemia; 9.55 µM in the assay on TK-10 renal; 13.4 µM in the assay with MCF7 breast; 6.69 µM in the assay with OVCAR-3 ovarian; 34.6 µM with A549 NSCLC.
Regarding `C[n+]1cccc2ccc(OC(=O)c3ccccc3)cc21`, the TGI in the assay with SNB-75 CNS, in the assay on EKVX NSCLC, in the assay on UACC-257 melanoma, in the assay with HT29 colon, with LOX IMVI melanoma and with MDA-N was more than 100 µM in each case. Further, the TGI with MDA-MB-435, in the assay with 786-0 renal, with UO-31 renal, with SK-OV-3 ovarian, in the assay on OVCAR-8 ovarian and with MOLT-4 leukemia was more than 100 µM in each case. Besides, the TGI with TK-10 renal, with MCF7 breast, in the assay with OVCAR-3 ovarian and in the assay with A549 NSCLC was more than 100 µM throughout.
For the compound `CC(C)(CO)NC(=O)Nc1c(C(F)(F)F)cc(-c2ccccc2)[nH]c1=O`, the TGI in the assay on NCI-H460 lung, in the assay with EKVX NSCLC, with UACC-257 melanoma, with HT29 colon, in the assay with LOX IMVI melanoma and in the assay on MDA-N was more than 100 µM in each case. Further, the TGI in the assay on MDA-MB-435, in the assay on 786-0 renal, in the assay on UO-31 renal, with SK-OV-3 ovarian, in the assay with OVCAR-8 ovarian and in the assay with MOLT-4 leukemia was more than 100 µM each time. Moreover, the TGI in the assay with TK-10 renal, in the assay with MCF7 breast, in the assay with OVCAR-3 ovarian and in the assay on A549 NSCLC was more than 100 µM in each case.
`COC(=O)C1=C(CCCCO[Si](C)(C)C(C)(C)C)NC(=O)N2[C@@H](CCOCc3ccccc3)CC[C@H]12`: the concentration for total growth inhibition (TGI) is more than 100 µM in the assay on SNB-75 CNS; more than 100 µM with NCI-H460 lung; more than 100 µM in the assay on EKVX NSCLC; more than 100 µM in the assay on UACC-257 melanoma; 35.1 µM in the assay on HT29 colon; 49.9 µM with MDA-N. For the same compound, the TGI with MDA-MB-435 is more than 100 µM; with 786-0 renal, 30.9 µM; with UO-31 renal, 56.2 µM; in the assay on SK-OV-3 ovarian, more than 100 µM; in the assay with MOLT-4 leukemia it was more than 100 µM; in the assay on TK-10 renal, more than 100 µM. Also, the TGI with MCF7 breast is more than 100 µM; in the assay on OVCAR-3 ovarian, 30.1 µM; with A549 NSCLC, 77.7 µM.
